# Experimental data: patent US4152519A, “16-Hydroxy aspidospermidines and a process for their production” (Parcor, priority 1976, dated 1979)
# Experiments:
# [1] = tested on: cortical electrogenesis disrupted by the presence of a unilateral cerebral oedema; test: effect on cortical electrogenesis disrupted by unilateral cerebral oedema in the unanaesthetised rabbit; assay type: in vivo
# Description: 48 hours before use, the animal's cranium is exposed and stainless steel electrodes are screwed on so as to contact the dura mater on the frontal and occipital lobes on both sides of the median and transverse sutures. The electrocorticogram is recorded on a REEGA MINI HUIT TR electroencephalograph mounted transversely and longitudinally, whilst a 4th channel serves to record the electrocardiogram. Moreover, a flap of bone 7 to 10 mm in diameter was removed on one side, and this operation was not found, 48 hours later, to have caused any appreciable disruption of the electrical activity of the cortex.
# An oedema was then produced by removing the dura mater and arachnoid; it usually takes the form of a hernia of the cortex. The treatment is then given and the electrocorticographic trace is monitored every hour during and after administration of the test products, then 24 and 48 hours later.
# The action of the test products is assessed on the basic electrogenesis, particularly on the presence of slow waves and on the signs of cortical reactivity to two exteroceptive stimuli: a receptive stimulus (electrical tone lasting 2 seconds) and a nociceptive stimulation of the nerve endings in the skin by pinching the dorsal skin using KOCHER forceps.
# The compounds are administered by either intravenous or intragastric route.
# [2] = stability in acidic medium; assay type: physicochemical
# [3] = in vivo
# Description: 2. the chronic toxicity (rats and dogs),
# 4. the local and general tolerance,
# 5. the possible teratogenic effects, […]
# [4] = tested on: "spatial disorientation" syndrome; test: effect on a "spatial disorientation" syndrome in the rat (aquatic labyrinth after electric shock); assay type: in vivo, rat (Wistar AF-Han)
# Description: This study was carried out using male rats of the Wistar AF-Han EOPS strains weighing about 160 g and about 6 to 7 weeks old.
# After being guided through once by the experimenter, the rats are first of all subjected to 4 tests in 2 days in an aquatic labyrinth described by GIURGEA and MOURAVIEFFLESUISSE (J. Pharmacol. PARIS, 1972, 3, 1, 17-30).
# On the 3rd day, the rats are subjected to a supramaximal electric shock delivered by a Neurovac controlled by a CRC OC 342 oscillograph; the electric shock has the following characteristics: 100 Hz, 0.5 ms, 1 second, 60 volts.
# After passing through the labyrinth 20 minutes after the electric shock, the rats are given their treatment by oesophageal tube. Two tests are carried out 40 and 100 minutes after treatment, i.e. 60 and 120 minutes after the electric shock, and the time taken to pass through the labyrinth by each animal is timed; the number of errors is also noted.
# The rats are put on a diet of water for 18 hours after passing through for the 4th time. The compound is administered by intragastric route in a volume of 5 ml/kg.
# time taken to leave the aquatic labyrinth;
# average number of errors made in an effort to leave the labyrinth;
# percentage of "normal" subjects, i.e. rats passing through the labyrinth with only 0-4 errors.
# low-pressure hypoxia = test: mortality caused by low-pressure hypoxia in the mouse; assay type: in vivo, mouse (NMRI-Han); set-up: survival time, average and standard deviation: unit not given here
# Description: An artificial altitude was created by placing the mouse in a sealed box and progressively reducing the pressure to 190 mm of mercury (equivalent to about 10,000 meters altitude) using a CEM-type pump, so that the desired altitude is obtained in 1 minute 10 seconds on average. A stopwatch is then started and the exact time when the chest movements cease is noted. Any mouse whose survival time is more than twice the average value noted in the corresponding "solvent control" series is regarded as protected.
# The ED50 was calculated from the percentage of "protected" mice using the graphical method indicated by LITCHFIELD and WILCOXON (J. Pharm. Exp. Ther., 1949, 96, 99-113).
# The compound was administered by intraperitoneal route 20 minutes before the altitude is artifically created; whatever the dose, the volume injected was always equal to 20 ml/kg.
# The effects were also examined after administration by oesophageal tube 60 minutes before the test, whilst the volume administered is always 20 ml/kg.
# The entire study was carried out on adult male EOPS mice (4 to 5 weeks old) of the NMRI-Han strain, divided into random test groups after being fed only water for 18 hours.
# [5] = acute toxicity in the mouse (LD50, SPEARMAN-KARBER method); settings: in vivo
# Description: (§1) The results of the study of the acute toxicity were as follows, the tests having been carried out on the mouse and rat, whilst the product was administered intravenously, subcutaneously and by oesophageal tube. The doses studied were administered in a volume of 1 ml/100 g of body weight, whilst each dose was administered to 5 males and 5 females; the LD 50 was investigated using the SPEARMAN-KARBER method.
# [6] = acute toxicity in the rat (LD50, SPEARMAN-KARBER method); settings: in vivo
# Description: as §1
# [7] = 50 mg/kg group, 20 minutes after electric shock (before treatment)
# [8] = 50 mg/kg group, before electric shock (before treatment)
# [9] = 50 mg/kg intragastric, 60 minutes after electric shock (40 minutes after treatment)
# [10] = 50 mg/kg intragastric, 120 minutes after electric shock (100 minutes after treatment)
# [11] = 100 mg/kg group, 20 minutes after electric shock (before treatment)
# [12] = 100 mg/kg group, before electric shock (before treatment)
# [13] = 100 mg/kg intragastric, 60 minutes after electric shock (40 minutes after treatment)
# [14] = 100 mg/kg intragastric, 120 minutes after electric shock (100 minutes after treatment)
compound,measurement,setting,value
"CCC12CCCN3CCC4(C(=Nc5ccccc54)C(O)(C(=O)OC)C1)C32 (single isomer, unassigned) [the compound]",effect on the development of electrogenesis in the cortex disrupted by unilateral cerebral oedema,"[1]; conclusion, unanaesthetised rabbit",beneficial effect
same,"increase of the value of the ""R"" index","[1]; intragastric, 5 mg/kg",~30%
same,"value of the ""R"" index","[1]; intragastric, 10 mg/kg, during the 8 hours following ingestion","a clear improvement in the value of the ""R"" index"
same,activity with regard to oedema symptoms (spontaneous electrogenesis and duration of alert reactions),"[1]; intravenous, 0.5 mg, 1 mg and 2 mg/kg",has a therapeutic acitivity with regard to oedema symptoms
same,stability in an acidic medium,[2],unstable in an acidic medium
same,tolerance,[3],"tolerated well both orally and by parenteral or intramuscular route, without causing local or general reactions"
same,average number of errors,[4]; [7],23.4
same,average time taken to leave the aquatic labyrinth,[4]; [7],186 s
same,"percentage of ""normal"" subjects (0-4 errors)",[4]; [7],0 percentage
same,average number of errors,[4]; [8],3.4
same,average time taken to leave the aquatic labyrinth,[4]; [8],39 s
same,"percentage of ""normal"" subjects (0-4 errors)",[4]; [8],80 percentage
same,average number of errors,[4]; [9],15.2
same,average time taken to leave the aquatic labyrinth,[4]; [9],96 s
same,"percentage of ""normal"" subjects (0-4 errors)",[4]; [9],28 percentage
same,average number of errors,[4]; [10],8.9
same,average time taken to leave the aquatic labyrinth,[4]; [10],68 s
same,"percentage of ""normal"" subjects (0-4 errors)",[4]; [10],52 percentage
same,average number of errors,[4]; [11],22.6
same,average time taken to leave the aquatic labyrinth,[4]; [11],168 s
same,"percentage of ""normal"" subjects (0-4 errors)",[4]; [11],0 percentage
same,average number of errors,[4]; [12],3.4
same,average time taken to leave the aquatic labyrinth,[4]; [12],37 s
same,"percentage of ""normal"" subjects (0-4 errors)",[4]; [12],77 percentage
same,average number of errors,[4]; [13],13.9
same,average time taken to leave the aquatic labyrinth,[4]; [13],103 s
same,"percentage of ""normal"" subjects (0-4 errors)",[4]; [13],17 percentage
same,average number of errors,[4]; [14],8.9
same,average time taken to leave the aquatic labyrinth,[4]; [14],80 s
same,"percentage of ""normal"" subjects (0-4 errors)",[4]; [14],47 percentage
same,recovery of memory,"[4]; oral route, conclusion",accelerates the recovery of memory already instilled
same,"survival time, average and standard deviation","low-pressure hypoxia; 2.5 mg/kg i.p., 20 minutes before altitude",88.4 ± 7.01
same,"survival time, average and standard deviation","low-pressure hypoxia; 5.0 mg/kg i.p., 20 minutes before altitude",108.5 ± 20.22
same,"survival time, average and standard deviation","low-pressure hypoxia; 10.0 mg/kg i.p., 20 minutes before altitude",155.7 ± 30.42
same,"survival time, average and standard deviation","low-pressure hypoxia; 15 mg/kg i.p., 20 minutes before altitude",179.6 ± 32.07
same,"survival time, average and standard deviation","low-pressure hypoxia; 20 mg/kg i.p., 20 minutes before altitude",275.4 ± 39.77
same,"survival time, average and standard deviation","low-pressure hypoxia; 30 mg/kg i.p., 20 minutes before altitude",308.5 ± 35.65
same,"survival time, average and standard deviation","low-pressure hypoxia; 50 mg/kg p.o., 60 minutes before test",122.6 ± 11.75
same,"survival time, average and standard deviation","low-pressure hypoxia; 100 mg/kg p.o., 60 minutes before test",186.8 ± 25.70
same,"survival time, average and standard deviation","low-pressure hypoxia; 150 mg/kg p.o., 60 minutes before test",179.7 ± 20.23
same,"survival time, average and standard deviation","low-pressure hypoxia; 200 mg/kg p.o., 60 minutes before test",287.0 ± 25.58
same,"survival time, average and standard deviation","low-pressure hypoxia; 250 mg/kg p.o., 60 minutes before test",306.5 ± 29.46
same,"survival time, average and standard deviation","low-pressure hypoxia; 300 mg/kg p.o., 60 minutes before test",281.6 ± 30.61
same,protection from the toxic effects of artificial altitude,low-pressure hypoxia; regardless of the route of administration,makes it possible to protect the mouse from the toxic effects of artificial altitude
same,LD50 at 72 h,[5]; iv,86 mg/kg
same,LD50 at 72 h,[5]; po,860 mg/kg
same,LD50 at 72 h,[5]; sc,176 mg/kg
same,LD50 at 72 h,[6]; iv,63.4 mg/kg
same,LD50 at 72 h,[6]; po,777 mg/kg
same,LD50 at 72 h,[6]; sc,126 mg/kg
